Values of other authors as cited in patent US20120148662A1, “Formulation” (priority 2010, published 2012).

What was measured:
[1] = dosed conventionally

oral bioavailability [1]: low | aqueous solubility: extremely low
Structure (SMILES): CCC(CC)CC1(C(=O)Nc2ccccc2SC(=O)C(C)C)CCCCC1 [dalcetrapib, S-[2-([[1-(2-ethylbutyl)-cyclohexyl]-carbonyl]amino)phenyl]2-methylpropanethioate]
